Tests used:
[1] = system: buccal tissue (EpiOral® tissues); conditions: for Average Apparent Permeability Coefficient Papp: donor pH 9.0, receiver pH 7.4, co-dosed 100 μM (caffeine 50 μM), n=6
in vitro = conditions: human
[2] = system: buccal tissue (EpiOral® tissues); experiment: Permeability Enhancer Assay (Permeability Enhancer Test); conditions: pH 5.0; reference […]10^−6 cm/s
Description: The donor side was not sampled and donor concentration was not measured.

Compound | Average Apparent Permeability Coefficient Papp [1] | effect of the enhancer on the Papp of diphenhydramine versus reference Papp from the Permeability Test [2] | other results
CC(C)NCC(O)COc1cccc2ccccc12 (stereo not drawn) [Propranolol] | 21.5 ± 4.66 10^−6 cm/s | – | Papp at 120 min, 100 μM (in vitro; pH 5): 1.45 ×10⁻⁶ cm/s; Papp at 120 min, 100 μM (in vitro; pH 7.4): 9.35 ×10⁻⁶ cm/s; Papp at 120 min, 100 μM (in vitro; pH 9): 21.5 ×10⁻⁶ cm/s
Cn1c(=O)c2c(ncn2C)n(C)c1=O [Caffeine] | 33.3 ± 3.55 10^−6 cm/s | – | change of Papp at pH 9.0 compared to that at pH 5.0 and 7.4 ([1]; pH 9.0 vs pH 5.0 and 7.4): only moderately increased
CCCCCCCCCC(=O)[O-].[Na+] [Sodium Caprate] | – | higher | –
CCCCCCCCCCCCCCCC[n+]1ccccc1 [Cetylpyridinium chloride] | – | higher | –
CCCCCCCCCCCCOS(=O)(=O)[O-].[Na+] [SDS, sodium dodecyl sulfate] | – | lower | –

Source: patent publication US10624845B2 (The Procter & Gamble Company, priority 2015, dated 2020)
